According to patent publication US12527782B2, “Use of hexokinase 2/mitochondria-detaching compounds for treating hexokinase-2 (HK2)-expressing cancers” (Vidac Pharma Ltd., priority 2016, dated 2026):

Experiments:
[1] = tested on: Lymphoma (Non-Hodgkin) LYXFNH HUT-78; experiment: CFA, LYXFNH HUT-78; assay type: cell-based, human; conditions: Cell line/CFA
Experimental: (§1) CFA was performed by Charles River Laboratories (Freiburg, Germany) in 96-well plate format according to a modified two-layer soft agar assay. The origin of the tumor xenografts has been described (Fiebig et al. 1989, incorporated herein by reference). The list of tumors used in this study is detailed in Table 1.
The cell lines tested were from a large collection of patient-derived (PDX) and cell line-derived (CDX) human tumor xenografts growing subcutaneously in immunodeficient nude mice (Oncotest GmbH, a Charles River Division). The majority of the xenografts have been directly transplanted from patients and passaged in nude mice. The xenografts retain most of the characteristics of the parental patient tumors including histology and sensitivity to anti-cancer drugs, and efficacy tests in tumor-bearing nude mice largely replicate the response of the donor patient to standard anti-cancer drugs. The cell lines were from publicly available cell lines, including cell lines derived from solid tumors and hematological malignancies. […]
The clonogenic assay was carried out in a 96 well plate format using ultra low attachment plates. […] Cultures were incubated at 37° C. and 7.5% CO2 in a humidified atmosphere for 8 to 14 days and monitored closely for colony growth using an inverted microscope. […]

VDAC1/HK2 complex = target: T1, VDAC1/HK2 complex (Homo sapiens, UniProt P52789); experiment: Microscale Thermophoresis (MST) dissociation of VDAC1/HK2 complex; assay type: binding; conditions: cell-free MST; HK2 pre-incubated with 1.5 μM VDAC1
T1 construct: host or cells: E. coli (HK2); sheep liver mitochondria (VDAC1)
Experimental: A431 (human skin SCC), HT-297.T (human AK), and HaCaT transformed normal keratinocyte cell lines were from ATCC (Manassas, VA) and were maintained in DMEM supplemented with 10% FCS, 4 mM L-Gln, 1 mM sodium pyruvate, 100 U/mL penicillin, 1 μg/mL streptomycin. Human HK1 and HK2 plasmids were purchased from Addgene (Cambridge, MA) and were purified from E. Coli. VDAC1 was purified from sheep liver mitochondria as described (Arbel et al. 2012, incorporated herein by reference). Human skin tissue microarray (SK208 and SK 805) were purchased from US Biomax Inc. (Rockville, MD).
Studies were conducted on Nanotemper Monolith NT.115 (Munich, Germany). HK1 and HK2 were labeled using Monolith™ NT.115 Protein Labeling Kit BLUE-NHS. As a preliminary study to form the VDAC1-HK complexes, various concentrations of VDAC1 were added to 67 nM HK1 or 71 nM HK2. The preferred VDAC1 concentration was determined to be 1.5 μM. For dissociation studies, HKs were pre-incubated with VDAC1 for 10 minutes and various concentrations of Formula C were added for an additional 10 minutes. MST default parameters were used and analysis was with Nanotemper analysis software. […]
The activity of Formula C in a cell-free assay was evaluated using Microscale Thermophoresis (MST) analysis, which is based on altered movement of a protein in a temperature gradient when bound to other molecules. […]

Pancreas PAXF 736 = experiment: CFA, PAXF 736; assay type: cell-based, human; conditions: PDX/CFA
Experimental: as §1

[2] = tested on: Leukemia (AML) LEXFAM KG-1a; experiment: CFA, LEXFAM KG-1a; assay type: cell-based, human; conditions: Cell line/CFA
Experimental: as §1

[3] = tested on: Pancreas PAXF Mia-Pa-Ca-2; experiment: CFA, PAXF Mia-Pa-Ca-2; assay type: cell-based, human; conditions: Cell line/CFA
Experimental: as §1

Prostate PRXF MRI-H-1579 = experiment: CFA, PRXF MRI-H-1579; assay type: cell-based, human; conditions: Cell line/CFA
Experimental: as §1

[4] = tested on: Leukemia (AML) LEXFAM PL-21; experiment: CFA, LEXFAM PL-21; assay type: cell-based, human; conditions: Cell line/CFA
Experimental: as §1

T1 sequence (P52789 whole entry, one chain of several): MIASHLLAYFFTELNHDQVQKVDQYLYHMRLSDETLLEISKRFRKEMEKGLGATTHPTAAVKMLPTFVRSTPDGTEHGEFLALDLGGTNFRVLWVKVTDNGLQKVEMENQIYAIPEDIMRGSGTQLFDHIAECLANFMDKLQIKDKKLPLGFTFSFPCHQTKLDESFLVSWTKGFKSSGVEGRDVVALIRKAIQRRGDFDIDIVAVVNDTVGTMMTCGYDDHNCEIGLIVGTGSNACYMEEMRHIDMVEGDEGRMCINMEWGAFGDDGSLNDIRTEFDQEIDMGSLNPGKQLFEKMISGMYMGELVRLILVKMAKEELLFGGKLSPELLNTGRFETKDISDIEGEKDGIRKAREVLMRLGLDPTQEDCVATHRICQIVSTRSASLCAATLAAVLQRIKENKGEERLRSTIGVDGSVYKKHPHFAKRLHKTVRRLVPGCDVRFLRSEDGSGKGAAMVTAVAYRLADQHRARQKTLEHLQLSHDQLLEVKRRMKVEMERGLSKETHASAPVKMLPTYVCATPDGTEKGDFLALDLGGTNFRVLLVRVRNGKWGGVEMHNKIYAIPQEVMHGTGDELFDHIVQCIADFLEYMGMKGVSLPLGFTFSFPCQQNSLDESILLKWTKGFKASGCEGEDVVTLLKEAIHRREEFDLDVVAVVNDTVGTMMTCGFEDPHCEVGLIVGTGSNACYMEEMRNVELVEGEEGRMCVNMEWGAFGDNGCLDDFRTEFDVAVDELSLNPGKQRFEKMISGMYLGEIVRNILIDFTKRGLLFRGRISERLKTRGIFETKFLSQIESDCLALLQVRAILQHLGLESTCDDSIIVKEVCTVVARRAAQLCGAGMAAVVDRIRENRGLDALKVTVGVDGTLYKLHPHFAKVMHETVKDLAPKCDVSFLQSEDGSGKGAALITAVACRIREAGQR

Q: For `CC/C=C\CC1C(=O)CCC1CC(=O)Oc1cccc2cccnc12` (stereo not shown) [Formula C], which IC50 [1] is on record?
A: 0.965 µM

Q: And the IC50 (VDAC1/HK2 complex)?
A: 0.092 µM

Q: And the IC50 (Pancreas PAXF 736)?
A: 1.74 µM

Q: What about the IC50 [2] of the same compound?
A: 1.92 µM

Q: What about the IC50 [3] of the same compound?
A: 1.97 µM

Q: What about the IC50 (Prostate PRXF MRI-H-1579) of the same compound?
A: 1.66 µM

Q: What about the IC50 [4] of the same compound?
A: 1.74 µM
